Test results: ChEMBL document CHEMBL5325471, “Identification of new modulator of DNA repairing pathways based on natural product (±)-peharmaline A” (Bioorg Med Chem, 2023)

Columns and labels:
[1] = tested on: PC-3; experiment: Antiproliferative activity against human PC-3 cells assessed as cell growth inhibition incubated for 44 hrs by MTT assay; format: functional, cell-based; conditions: PC-3, 44 h
[2] = tested on: MCF7; experiment: Antiproliferative activity against human MCF7 cells assessed as cell growth inhibition incubated for 44 hrs by MTT assay; format: functional, cell-based; conditions: MCF7, 44 h
[3] = tested on: A549; experiment: Antiproliferative activity against human A549 cells assessed as cell growth inhibition incubated for 44 hrs by MTT assay; format: functional, cell-based; conditions: A549, 44 h
[4] = tested on: HCT-116; experiment: Antiproliferative activity against human HCT-116 cells assessed as cell growth inhibition incubated for 44 hrs by MTT assay; format: functional, cell-based; conditions: HCT-116, 44 h
[5] = Cytotoxicity against human fR2 cells assessed as cell growth inhibition incubated for 44 hrs by MTT assay; format: toxicity, cell-based
[6] = tested on: HL-60; experiment: Cytotoxicity against human HL-60 cells; format: functional, cell-based
[7] = tested on: PC-3; experiment: Cytotoxicity against human PC-3 cells; format: functional, cell-based
[8] = tested on: SGC-7901; experiment: Cytotoxicity against human SGC-7901 cells; format: functional, cell-based

Row | SMILES | IC50 [1] [µM] | IC50 [2] [µM] | IC50 [3] [µM] | IC50 [4] [µM] | IC50 at 44 h [5] [µM] | IC50 [6] [µM] | IC50 [7] [µM] | IC50 [8] [µM]
1 | COC(=O)[C@]1([C@H]2CCNC2=O)NCCc2c1[nH]c1ccccc21 | 75.1 | > 100 | 39.8 | 25.6 | > 100 | – | – | –
2 | COC(=O)[C@]1([C@H]2CCN(C(=O)c3ccccc3[N+](=O)[O-])C2=O)NCCc2c1[nH]c1ccccc21 | > 100 | 51.3 | > 100 | > 100 | > 100 | – | – | –
3 | COC(=O)[C@]1([C@H]2CCN(C(=O)c3ccccc3[N+](=O)[O-])C2=O)NCCc2c1[nH]c1cc(OC)ccc21 | 31 | 16.1 | 12.7 | 6.19 | 17.8 | – | – | –
4 | COC(=O)[C@@H]1Cc2c([nH]c3ccccc23)[C@@](C(=O)OC)([C@H]2CCNC2=O)N1 | > 100 | > 100 | 20.4 | 27.4 | > 100 | – | – | –
5 | COC(=O)[C@]1([C@H]2CCNC2=O)NCCc2c1[nH]c1cc(OC)ccc21 | > 100 | 81.6 | 16.6 | > 100 | > 100 | – | – | –
6 | COC(=O)[C@]1([C@H]2CCCCn3c2nc2ccccc2c3=O)NCCc2c1[nH]c1ccccc21 | 6.47 | 6.95 | 7.91 | 5.35 | 35.6 | – | – | –
7 | COC(=O)[C@]1([C@@H]2CCNC2=O)NCCc2c1[nH]c1cc(OC)ccc21 | 91.7 | > 100 | > 100 | 7.48 | > 100 | – | – | –
8 | COC(=O)[C@@H]1Cc2c([nH]c3ccccc23)[C@@](C(=O)OC)([C@H]2CCCn3c2nc2ccccc2c3=O)N1 | 13 | 6.2 | 10.4 | 6.26 | 33.2 | – | – | –
9 | COC(=O)[C@]1([C@H]2CCCN(C(=O)c3ccccc3[N+](=O)[O-])C2=O)NCCc2c1[nH]c1ccccc21 | > 100 | 51.2 | 39.1 | 42.2 | > 100 | – | – | –
10 | COC(=O)[C@]1([C@H]2CCCNC2=O)NCCc2c1[nH]c1ccccc21 | 35 | > 100 | > 100 | > 100 | > 100 | – | – | –
11 | COC(=O)[C@@H]1Cc2c([nH]c3ccccc23)[C@@](C(=O)OC)([C@H]2CCCN(C(=O)c3ccccc3[N+](=O)[O-])C2=O)N1 | > 100 | > 100 | 19.4 | > 100 | > 100 | – | – | –
12 | COC(=O)[C@]1([C@H]2CCCn3c2nc2ccccc2c3=O)NCCc2c1[nH]c1ccccc21 | 4.95 | 3.28 | 6.88 | 4.15 | 93.6 | – | – | –
13 | COC(=O)[C@]1([C@H]2CCCCN(C(=O)c3ccccc3[N+](=O)[O-])C2=O)NCCc2c1[nH]c1ccccc21 | 36.5 | 7.43 | 35.8 | 15.1 | 30.2 | – | – | –
14 | COC(=O)[C@]1([C@H]2CCCCNC2=O)NCCc2c1[nH]c1ccccc21 | > 100 | 93.3 | > 100 | > 100 | > 100 | – | – | –
15 | COC(=O)[C@]1([C@H]2CCN(C(=O)c3ccc(C(F)(F)F)cc3Cl)C2=O)NCCc2c1[nH]c1ccccc21 (racemic) | 13.5 | 4.51 | 0.845 | 3 | 39.2 | – | – | –
16 | COC(=O)[C@]1([C@H]2CCN(C(=O)C3CCC3)C2=O)NCCc2c1[nH]c1ccccc21 (racemic) | > 100 | > 100 | 23.7 | 25.6 | > 100 | – | – | –
17 | COC(=O)[C@]1([C@H]2CCN(C(=O)c3ccc(Cl)cc3[N+](=O)[O-])C2=O)NCCc2c1[nH]c1ccccc21 (racemic) | > 100 | > 100 | > 100 | > 100 | > 100 | – | – | –

Row | SMILES | IC50 [1] [µM] | IC50 [2] [µM] | IC50 [3] [µM] | IC50 [4] [µM] | IC50 at 44 h [5] [µM] | IC50 [6] [µM] | IC50 [7] [µM] | IC50 [8] [µM]
18 | COC(=O)[C@]1([C@H]2CCN(C(=O)c3ccc(Cl)cc3)C2=O)NCCc2c1[nH]c1ccccc21 (racemic) | > 100 | > 100 | 20.4 | 19.7 | > 100 | – | – | –
19 | COC(=O)[C@]1([C@H]2CCN(C(=O)c3ccccc3F)C2=O)NCCc2c1[nH]c1ccccc21 (racemic) | 5.96 | 6.96 | 6.45 | 8.65 | > 100 | – | – | –
20 | COC(=O)[C@]1([C@H]2CCn3c2nc2ccccc2c3=O)NCCc2c1[nH]c1cc(OC)ccc21 (racemic) | 12.2 | 6.22 | 5.24 | 15.4 | 17.9 | 9.2 | 21.6 | 25.4
21 | COC(=O)[C@]1([C@H]2CCN(C(=O)c3ccc(C)cc3[N+](=O)[O-])C2=O)NCCc2c1[nH]c1ccccc21 (racemic) | > 100 | > 100 | 16.3 | > 100 | > 100 | – | – | –
22 | COC(=O)[C@]1([C@H]2CCCN(C(=O)c3ccccc3Cl)C2=O)NCCc2c1[nH]c1ccccc21 (racemic) | 43.7 | 47.7 | 5.21 | 5.34 | > 100 | – | – | –
23 | CCOC(=O)[C@]1([C@H]2CCN(C(=O)c3ccccc3[N+](=O)[O-])C2=O)NCCc2c1[nH]c1ccccc21 (racemic) | > 100 | 28.1 | 10.7 | > 100 | > 100 | – | – | –
24 | COC(=O)[C@]1([C@H]2CCN(C(=O)c3ccccc3)C2=O)NCCc2c1[nH]c1ccccc21 (racemic) | > 100 | > 100 | 17.3 | 16.4 | > 100 | – | – | –
25 | COC(=O)[C@]1([C@H]2CCN(C(=O)c3ccccc3Br)C2=O)NCCc2c1[nH]c1ccccc21 (racemic) | 6.23 | 8.12 | 3.37 | 3.92 | 89.8 | – | – | –
26 | COC(=O)[C@]1([C@H]2CCN(C(=O)c3ccccc3Cl)C2=O)NCCc2c1[nH]c1ccccc21 (racemic) | 2.39 | 1.62 | 1.12 | 4.12 | 20 | – | – | –
27 | COC(=O)[C@]1([C@H]2CCN(C(=O)c3ccc(C)cc3C)C2=O)NCCc2c1[nH]c1ccccc21 (racemic) | 59.7 | > 100 | 16.3 | 11.2 | > 100 | – | – | –
28 | CCOC(=O)[C@]1([C@H]2CCNC2=O)NCCc2c1[nH]c1ccccc21 (racemic) | > 100 | > 100 | > 100 | > 100 | > 100 | – | – | –
29 | COC(=O)[C@]1([C@H]2CCN(C(=O)c3ccc(F)cc3)C2=O)NCCc2c1[nH]c1ccccc21 (racemic) | 17 | > 5.04 | 7.8 | 10.1 | 35.8 | – | – | –
30 | COC(=O)[C@]1([C@H]2CCN(C(=O)c3cccs3)C2=O)NCCc2c1[nH]c1ccccc21 (racemic) | 94.4 | 15.9 | 17.9 | 14 | 39.2 | – | – | –
31 | CCOC(=O)[C@]1([C@H]2CCN(C(=O)c3ccccc3Cl)C2=O)NCCc2c1[nH]c1ccccc21 (racemic) | 22.8 | 20.4 | 72.8 | 55.8 | 84 | – | – | –
32 | COC(=O)[C@]1([C@H]2CCN(C(=O)c3ccccc3I)C2=O)NCCc2c1[nH]c1ccccc21 (racemic) | 7.02 | 8.36 | 5.02 | 5.76 | > 100 | – | – | –
33 | COC(=O)[C@]1([C@H]2CCN(C(=O)c3ccc(Cl)cc3Cl)C2=O)NCCc2c1[nH]c1ccccc21 (racemic) | 11.1 | 8.36 | 10.8 | 8.79 | > 100 | – | – | –
